Experimental data reported in ChEMBL document CHEMBL3751682, “Synthesis, anti-inflammatory, ulcerogenic and cyclooxygenase activities of indenopyrimidine derivatives” (Bioorg Med Chem Lett, 2016).

Columns and labels:
[1] = Ratio of IC50 for human COX2 to IC50 for ovine COX1 by prostaglandin biosynthesis assay
Rattus norvegicus [2] = assay: Anti-inflammatory activity in albino Wistar rat assessed as inhibition of carrageenan-induced paw edema at 25 mg/kg, po measured every one hour for 5 hrs; type: functional
Rattus norvegicus [3] = assay: Ulcerogenicity in albino Wistar rat assessed as ulcer index at 50 mg/kg, po after 20 hrs; type: toxicity, organism-based; settings: in vivo
Rattus norvegicus [4] = assay: Anti-inflammatory activity in albino Wistar rat assessed as inhibition of carrageenan-induced paw edema at 50 mg/kg, po measured every one hour for 5 hrs; type: functional
Rattus norvegicus [5] = assay: Ulcerogenicity in albino Wistar rat assessed as ulcer index at 100 mg/kg, po after 20 hrs; type: toxicity, organism-based; settings: in vivo
Rattus norvegicus [6] = assay: Anti-inflammatory activity in albino Wistar rat assessed as inhibition of carrageenan-induced paw edema at 30 mg/kg, po measured every one hour for 5 hrs; type: functional

Row | Structure (SMILES) | Ratio IC50 [1] | inhibition in vivo at 25 mg/kg (Rattus norvegicus [2]) | UI (Rattus norvegicus [3]) | inhibition in vivo at 50 mg/kg (Rattus norvegicus [4]) | UI (Rattus norvegicus [5]) | inhibition in vivo at 30 mg/kg (Rattus norvegicus [6])
1 | Cc1ccc(-c2cc(C(F)(F)F)nn2-c2ccc(S(N)(=O)=O)cc2)cc1 | 0.04 | – | – | – | – | –
2 | Nc1nc(-c2ccc([N+](=O)[O-])cc2)c2c(n1)-c1ccccc1C2=O | – | 77.3% | 2.9 | 81.3% | – | –
3 | Nc1nc(-c2ccc(Br)cc2)c2c(n1)-c1ccccc1C2=O | 0.69 | 76.7% | 2.9 | 80% | – | –
4 | Nc1nc(-c2cccc([N+](=O)[O-])c2)c2c(n1)-c1ccccc1C2=O | 0.7 | 76% | 2.9 | 79.3% | – | –
5 | O=C(O)Cc1ccccc1Nc1c(Cl)cccc1Cl [DICLOFENAC] | – | – | – | – | 5.7 | 85.3%
6 | Nc1nc(-c2ccc(Cl)cc2)c2c(n1)-c1ccccc1C2=O | 0.7 | 76% | 3 | 78% | – | –
7 | COc1cc(-c2nc(N)nc3c2C(=O)c2ccccc2-3)cc(OC)c1OC | 0.69 | 75.3% | 2.8 | 78.7% | – | –
8 | COc1cccc(-c2nc(N)nc3c2C(=O)c2ccccc2-3)c1 | 0.68 | 75.3% | 2.9 | 78% | – | –
9 | Nc1nc(-c2ccccc2)c2c(n1)-c1ccccc1C2=O | – | 76.7% | 3 | 80.7% | – | –
